Here are results for 33 molecules from patent US9815850B2, “Compounds, compositions and methods” (Denali Therapeutics Inc., priority 2016, dated 2017).

Molecules are shown by their SMILES.

As usually defined, the IC50 is the concentration that gives 50% inhibition.

The target of this assay is GST-hRIPK1 (8-327) (Homo sapiens (Human), UniProt Q13546). As to the kind of experiment: Fluorescent Polarization Binding (FP Binding) assay. As to conditions: 10 nM GST-hRIPK1 (8-327), 5 nM fluorescent labeled ligand; read-out: FP IC50. The procedure: Fluorescent Polarization Binding (FP Binding) assay (Berger S. B. et al. […] Maki J. L. et al. […] Test Compounds were serially diluted in DMSO at 100 fold final concentrations in the assay (1% DMSO final). […] For negative control the enzyme addition was replaced by assay buffer only. After addition of 5 μL of fluorescent labeled ligand at twice the final concentrations in assay buffer, the plate was incubated at RT for 30 min.
Chain of GST-hRIPK1 (8-327) (Q13546 8-327): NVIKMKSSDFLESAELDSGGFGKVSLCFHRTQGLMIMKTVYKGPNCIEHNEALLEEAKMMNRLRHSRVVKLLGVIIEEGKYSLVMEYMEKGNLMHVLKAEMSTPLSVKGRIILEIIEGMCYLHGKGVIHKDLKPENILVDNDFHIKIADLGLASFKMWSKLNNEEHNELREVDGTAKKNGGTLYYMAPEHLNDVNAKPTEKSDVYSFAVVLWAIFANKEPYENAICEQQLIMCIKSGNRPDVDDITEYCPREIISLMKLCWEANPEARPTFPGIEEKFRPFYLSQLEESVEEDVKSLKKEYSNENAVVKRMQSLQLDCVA
As to `CN1C(=O)[C@H](NC(=O)c2nnc(Cc3ccccc3)[nH]2)C[C@H](F)c2ccccc21` (mixture of isomers) [Example 11B], the concentration for half-maximal inhibition (IC50) is 1 to 10 µM. The figure for `CN1C(=O)[C@@H](NC(=O)c2cc(Cc3ccccc3)on2)CCc2sc(Cl)cc21` (stereo in doubt) [Example 1A, 5-Benzyl-N-(2-chloro-4-methyl-5-oxo-4H,5H,6H,7H,8H-thieno[3,2-b]azepin-6-yl)-1,2-oxazole-3-carboxamide] is 0.0001 to 1 µM; for `CN1C(=O)[C@H](NC(=O)c2cc(Cc3ccccc3)on2)CCc2sc(Cl)cc21` (stereo in doubt) [Example 1B, 5-Benzyl-N-(2-chloro-4-methyl-5-oxo-4H,5H,6H,7H,8H-thieno[3,2-b]azepin-6-yl)-1,2-oxazole-3-carboxamide] it is 0.0001 to 1 µM; for `CN1C(=O)C(NC(=O)c2cc(Cc3ccccc3)on2)[C@@H]2C[C@@H]2c2ccccc21` (stereo in doubt) [Example 7B, 5-benzyl-N-((2S)-4-methyl-3-oxo-1,1a,2,3,4,8b-hexahydrobenzo[b]cyclopropa[d]azepin-2-yl)isoxazole-3-carboxamide] it is greater than 10 µM. `CN1C(=O)C(NC(=O)c2cc(Cc3ccccc3)on2)CC(F)c2ccccc21` (stereo not drawn) [Example 2B, 5-benzyl-N-(5-fluoro-1-methyl-2-oxo-2,3,4,5-tetrahydro-1H-benzo[b]azepin-3-yl)isoxazole-3-carboxamide]: the IC50 lay in the range of 0.0001 to 1 µM. The figure for `CN1C(=O)[C@@H](NC(=O)c2cc(Cc3ccccc3)on2)[C@H]2C[C@H]2c2ccccc21` [Example 7A, 5-benzyl-N-((2S)-4-methyl-3-oxo-1,1a,2,3,4,8b-hexahydrobenzo[b]cyclopropa[d]azepin-2-yl)isoxazole-3-carboxamide] is 0.0001 to 1 µM; for `CN1C(=O)[C@@H](NC(=O)c2nnc(Cc3ccccc3)[nH]2)C[C@@H](F)c2ccccc21` [Example 11A] it is 0.0001 to 1 µM. As for `CN1C(=O)[C@@H](NC(=O)c2nnc(Cc3ccccc3)[nH]2)C[C@H](F)c2ccccc21` [Example 12A], the IC50 was 0.0001 to 1 µM.

Take `CN1C(=O)[C@H](NC(=O)c2nnc(Cc3ccccc3)[nH]2)C[C@@H](F)c2ccccc21` [Example 12B]: the IC50 lay in the range of 0.0001 to 1 µM. As for `CN1C(=O)[C@@H](NC(=O)c2cc(Cc3ccccc3)[nH]n2)CC2(CC2)c2ccccc21` [Example 59, 5-benzyl-N-[(3S)-1-methyl-2-oxo-1,2,3,4-tetrahydrospiro[l-benzazepine-5,1-cyclopropane]-3-yl]-1H-pyrazole-3-carboxamide], the figure is 0.0001 to 1 µM. As for `CN1C(=O)[C@@H](NC(=O)c2cc(Cc3ccccc3)[nH]n2)[C@H]2C[C@H]2c2ccccc21` [Example 60A, 5-benzyl-N-((1aS,2S,8bR)-4-methyl-3-oxo-1,1a,2,3,4,8b-hexahydrobenzo[b]cyclopropa[d]azepin-2-yl)-1H-pyrazole-3-carboxamide], the figure is 0.0001 to 1 µM; as for `CN1C(=O)[C@H](NC(=O)c2cc(Cc3ccccc3)[nH]n2)[C@@H]2C[C@@H]2c2ccccc21` [Example 60B, 5-benzyl-N-((1aR,2R,8bS)-4-methyl-3-oxo-1,1a,2,3,4,8b-hexahydrobenzo[b]cyclopropa[d]azepin-2-yl)-1H-pyrazole-3-carboxamide], greater than 3 µM; as for `CN1C(=O)[C@@H](NC(=O)c2coc(C3(c4ccccc4)CC3)n2)COc2ccccc21` [Example 61, (S)—N-(5-methyl-4-oxo-2,3,4,5-tetrahydrobenzo[b][1,4]oxazepin-3-yl)-2-(1-phenylcyclopropyl)oxazole-4-carboxamide], 0.0001 to 1 µM. As for `O=C(N[C@H]1COc2cccnc2NC1=O)c1cc(C2(c3ccccc3)CC2)on1` [Example 62, (S)—N-(4-oxo-2,3,4,5-tetrahydropyrido[3,2-b][1,4]oxazepin-3-yl)-5-(1-phenylcyclopropyl)isoxazole-3-carboxamide], the IC50 lay in the range of 0.0001 to 1 µM. With `CN1C(=O)[C@@H](NC(=O)c2ncc(C3(c4ccccc4)CC3)s2)COc2cccnc21` [Example 63, (S)—N-(5-methyl-4-oxo-2,3,4,5-tetrahydropyrido[3,2-b][1,4]oxazepin-3-yl)-5-(1-phenylcyclopropyl)thiazole-2-carboxamide], the IC50 fell in the range of 0.0001 to 1 µM. As for `CN1C(=O)[C@@H](NC(=O)c2nn(Cc3ccccc3)cc2F)COc2ccccc21` [Example 64, (S)-1-benzyl-4-fluoro-N-(5-methyl-4-oxo-2,3,4,5-tetrahydrobenzo[b][1,4]oxazepin-3-yl)-1H-pyrazole-3-carboxamide], the IC50 lay in the range of 0.0001 to 1 µM. Consider `CN1C(=O)[C@@H](NC(=O)c2nnc(Cc3ccccc3)[nH]2)[C@@H]2C[C@@H]2c2ccccc21` [Example 67A, 5-benzyl-N-((1aR,2S,8bS)-4-methyl-3-oxo-1,1a,2,3,4,8b-hexahydrobenzo[b]cyclopropa[d]azepin-2-yl)-4H-1,2,4-triazole-3-carboxamide], for which the IC50 lay within 0.0001 to 1 µM.

With `CN1C(=O)[C@H](NC(=O)c2nnc(Cc3ccccc3)[nH]2)[C@H]2C[C@H]2c2ccccc21` [Example 67B, 5-benzyl-N-((1aS,2R,8bR)-4-methyl-3-oxo-1,1a,2,3,4,8b-hexahydrobenzo[b]cyclopropa[d]azepin-2-yl)-4H-1,2,4-triazole-3-carboxamide], the IC50 was greater than 3 µM.

For `O=C(N[C@H]1COc2ccccc2-n2ccnc21)c1nnc(Cc2ccccc2)[nH]1` [Example 68A, (R)-5-benzyl-N-(4,5-dihydrobenzo[b]imidazo[1,2-d][1,4]oxazepin-4-yl)-4H-1,2,4-triazole-3-carboxamide], the IC50 is 0.0001 to 1 µM.

As to `O=C(N[C@@H]1COc2ccccc2-n2ccnc21)c1nnc(Cc2ccccc2)[nH]1` [Example 68B, (S)-5-benzyl-N-(4,5-dihydrobenzo[b]imidazo[1,2-d][1,4]oxazepin-4-yl)-4H-1,2,4-triazole-3-carboxamide], the 50% inhibitory concentration (IC50) is greater than 3 µM. With `O=C(N[C@H]1CCc2ccccc2-n2cnnc21)c1nnc(Cc2ccccc2)[nH]1` [Example 69A, (S)-5-benzyl-N-(5,6-dihydro-4H-benzo[f][1,2,4]triazolo[4,3-a]azepin-4-yl)-4H-1,2,4-triazole-3-carboxamide], the IC50 lay within 0.0001 to 1 µM.

Consider `O=C(N[C@@H]1CCc2ccccc2-n2cnnc21)c1nnc(Cc2ccccc2)[nH]1` [Example 69B, (R)-5-benzyl-N-(5,6-dihydro-4H-benzo[f][1,2,4]triazolo[4,3-a]azepin-4-yl)-4H-1,2,4-triazole-3-carboxamide], for which the IC50 was greater than 3 µM. On to `O=C(N[C@H]1COc2ccccc2-n2ccnc21)c1cc(Cc2ccccc2)on1` [Example 70A, (R)-5-benzyl-N-(4,5-dihydrobenzo[b]imidazo[1,2-d][1,4]oxazepin-4-yl)isoxazole-3-carboxamide], for which the IC50 was in the range of 0.0001 to 1 µM. The figure for `O=C(N[C@@H]1COc2ccccc2-n2ccnc21)c1cc(Cc2ccccc2)on1` [Example 70B, (S)-5-benzyl-N-(4,5-dihydrobenzo[b]imidazo[1,2-d][1,4]oxazepin-4-yl)isoxazole-3-carboxamide] is greater than 3 µM; for `O=C(N[C@H]1CCc2ccccc2-n2cnnc21)c1cc(Cc2ccccc2)on1` [Example 71A, (S)-5-benzyl-N-(5,6-dihydro-4H-benzo[f][1,2,4]triazolo[4,3-a]azepin-4-yl)isoxazole-3-carboxamide] it is 0.0001 to 1 µM. As for `O=C(N[C@@H]1CCc2ccccc2-n2cnnc21)c1cc(Cc2ccccc2)on1` [Example 71B, (R)-5-benzyl-N-(5,6-dihydro-4H-benzo[f][1,2,4]triazolo[4,3-a]azepin-4-yl)isoxazole-3-carboxamide], the figure is greater than 3 µM; as for `CN1C(=O)[C@@H](NC(=O)c2cc(C3(c4ccccc4)CC3)[nH]n2)COc2ccccc21` [Example 72, (S)—N-(5-methyl-4-oxo-2,3,4,5-tetrahydrobenzo[b][1,4]oxazepin-3-yl)-5-(1-phenylcyclopropyl)-1H-pyrazole-3-carboxamide], 0.0001 to 1 µM. As for `CN1C(=O)[C@@H](NC(=O)c2cc(C3(c4ccccc4)CC3)[nH]n2)COc2cccnc21` [Example 73, (S)—N-(5-methyl-4-oxo-2,3,4,5-tetrahydropyrido[3,2-b][1,4]oxazepin-3-yl)-5-(1-phenylcyclopropyl)-1H-pyrazole-3-carboxamide], the figure is 0.0001 to 1 µM; as for `CN1C(=O)[C@@H](NC(=O)c2nn(Cc3ccccn3)cc2F)COc2cccnc21` [Example 74, (S)-4-fluoro-N-(5-methyl-4-oxo-2,3,4,5-tetrahydropyrido[3,2-b][1,4]oxazepin-3-yl)-1-(pyridin-2-ylmethyl)-1H-pyrazole-3-carboxamide], 0.0001 to 1 µM; as for `CN1C(=O)[C@H](NC(=O)c2nnc(Cc3ccccc3)[nH]2)[C@@H]2C[C@@H]2c2cccnc21` [Example 75B, 5-benzyl-N-((1aR,2R,8bS)-4-methyl-3-oxo-1,1a,2,3,4,8b-hexahydrocyclopropa[d]pyrido[2,3-b]azepin-2-yl)-4H-1,2,4-triazole-3-carboxamide], greater than 3 µM. Regarding `CN1C(=O)[C@@H](NC(=O)c2nn(Cc3ccccc3)cc2F)COc2cccnc21` [Example 76, (S)-1-benzyl-4-fluoro-N-(5-methyl-4-oxo-2,3,4,5-tetrahydropyrido[3,2-b][1,4]oxazepin-3-yl)-1H-pyrazole-3-carboxamide], the IC50 fell in the range of 0.0001 to 1 µM. The figure for `CN1C(=O)[C@@H](NC(=O)c2ncc(C3(c4ccccc4)CC3)[nH]2)COc2ccccc21` [Example 78, (S)—N-(5-methyl-4-oxo-2,3,4,5-tetrahydrobenzo[b][1,4]oxazepin-3-yl)-5-(1-phenylcyclopropyl)-1H-imidazole-2-carboxamide] is 0.0001 to 1 µM; for `CN1C(=O)[C@@H](NC(=O)c2nc3cccc(-c4ccccc4F)c3s2)COc2ccccc21` [Example 79, (S)-7-(2-fluorophenyl)-N-(5-methyl-4-oxo-2,3,4,5-tetrahydrobenzo[b][1,4]oxazepin-3-yl)benzo[d]thiazole-2-carboxamide] it is 0.0001 to 1 µM.
